Source: patent publication US20200188471A1 (GUILIN EIGHT PLUS ONE PHARMACEUTICAL CO., LTD., priority 2017, published 2020)
pKd: −log10 of the molar value. No end group written: not given here.

Columns and labels:
[1] = target: T1, TNF-α (Homo sapiens, UniProt P01375); assay: BIAcore (SPR) interaction with TNF-α; assay type: binding
[2] = target: T2, interaction of TNFR1 with TNF-α (Homo sapiens, UniProt P19438); assay: BIAcore (SPR) competitive inhibition between TNF-α and TNFR1; assay type: binding
T2 sequence (P19438 30-211 limits assumed): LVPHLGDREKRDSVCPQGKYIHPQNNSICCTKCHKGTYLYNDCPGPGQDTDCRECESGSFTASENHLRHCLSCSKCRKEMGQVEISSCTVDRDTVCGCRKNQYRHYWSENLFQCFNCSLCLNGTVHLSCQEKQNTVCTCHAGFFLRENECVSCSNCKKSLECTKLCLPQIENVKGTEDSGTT

[3] = target: T1, TNF-α; assay: MST interaction with TNF-α; assay type: binding; conditions: fluorescently labeled TNF-α
[4] = target: T3, TNFR2 (Homo sapiens, UniProt P20333); assay: MST interaction with TNFR2; assay type: binding
T3 sequence (P20333 23-461): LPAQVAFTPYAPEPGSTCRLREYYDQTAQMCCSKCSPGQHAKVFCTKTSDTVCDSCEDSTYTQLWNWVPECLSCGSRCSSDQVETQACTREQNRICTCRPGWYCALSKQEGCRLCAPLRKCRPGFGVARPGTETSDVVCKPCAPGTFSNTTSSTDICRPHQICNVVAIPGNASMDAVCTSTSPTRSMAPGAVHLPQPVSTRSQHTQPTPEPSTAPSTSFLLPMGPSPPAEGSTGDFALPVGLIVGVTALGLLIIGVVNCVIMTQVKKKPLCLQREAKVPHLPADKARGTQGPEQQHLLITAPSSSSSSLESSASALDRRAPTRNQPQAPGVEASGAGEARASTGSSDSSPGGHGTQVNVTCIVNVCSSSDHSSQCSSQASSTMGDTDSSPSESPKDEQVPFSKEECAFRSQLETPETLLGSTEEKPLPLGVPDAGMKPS

[5] = target: T4, interaction of TNFR1 and TNF-α (Homo sapiens, UniProt P19438); assay: MST competitive inhibition between TNF-α and TNFR1; assay type: binding
T4 sequence (P19438 30-211 limits assumed): T2 sequence (P19438 30-211 limits assumed)
Source text: Calculate the KD value by software. The changes of TNF-α saturation concentration, response amplitude and KD value before and after Hydrostatin-SN10 were compared.

[6] = system: CIA mice; assay: Arthritis index in type II bovine collagen-induced arthritis (CIA) mice; assay type: in vivo, DBA/1 mice; conditions: i.p. 1600 ug/kg once a day for 18 days, vs model group
Procedure: (§1) After 3 days of adaptation, DBA/1 mice were weighed and began to model. Six were randomly selected as the normal group, and the rest were the experimental group.
(§2) Day 0: Take bovine type IT collagen (4 mg/ml) and vortex and mix with an equal volume of CFA (4 mg/ml). It is better to not disperse on the water, and 100 ul/head is injected intradermally into the tail of the mouse.
(§3) Day 21: Take bovine type II collagen (4 mg/ml) and vortex mixed with an equal volume of IFA (4 mg/ml) until the droplets are not dispersed on the water. The mice are injected intradermally with 100 ul/head. On the 30th day, the model was successfully established. […] The drug was administered by injection once a day for 18 days.
(§4) One-Way ANOVA statistical analysis of the data using Graphpad Prism 5 was considered statistically significant at P<0.05. “*” indicates P<0.05, “**” indicates P<0.01, and “***” indicates P<0.001.

[7] = system: CIA mice; assay: Collagen-specific antibody and inflammatory factors in serum of CIA mice (ELISA, multi-factor kit); assay type: in vivo, DBA/1 mice; conditions: 1600 ug/kg i.p., vs model group
Procedure: as §1, §2, §3, §4
The ELISA kit and multi-factor kit were used to determine the collagen-specific antibody Ig G and pro-inflammatory factors IL-17, TNF-α, IL-6, IFN-γ and anti-inflammatory factor IL-10 in the serum of each group of mice. Compared with the normal control group, the collagen-specific antibody Ig G and the pro-inflammatory factors IL-17, TNF-α, IL-6, IFN-γ in the serum of the model group mice.

[8] = system: CIA mice; assay: Micro-CT detection of bone destruction in CIA mice; assay type: in vivo, DBA/1 mice
[9] = system: CIA mice; assay: Joint histology of CIA mice (HE staining, TNF-α immunohistochemistry, TRAP staining); assay type: in vivo, DBA/1 mice
[10] = system: CIA mice; assay: Treg (Foxp3) and Th1, Th2, Th17 expression in T cells/splenocytes of CIA mice; assay type: in vivo, DBA/1 mice; conditions: vs model group
Procedure: as §1, §2, §3, §4
Studies have shown that Th17 cells secrete high levels of IL-17, which stimulates the secretion of matrix metalloproteinase-1, IL-1β by FLS. TNF-α and other co-inducing NF-κB receptor activator ligands are involved in the bone destruction of RA and inflammatory damage in tissues. The effect was observed by measuring the expression of helper T cells in splenocytes.

[11] = target: T5, TNFR1 (Homo sapiens, UniProt P19438); conditions: read-out: binding capacity with TNFR1 (KD); SPR; from Hailong Jiang 2015 master dissertation of the inventors' group; cited from earlier work
T5 sequence (P19438 30-455): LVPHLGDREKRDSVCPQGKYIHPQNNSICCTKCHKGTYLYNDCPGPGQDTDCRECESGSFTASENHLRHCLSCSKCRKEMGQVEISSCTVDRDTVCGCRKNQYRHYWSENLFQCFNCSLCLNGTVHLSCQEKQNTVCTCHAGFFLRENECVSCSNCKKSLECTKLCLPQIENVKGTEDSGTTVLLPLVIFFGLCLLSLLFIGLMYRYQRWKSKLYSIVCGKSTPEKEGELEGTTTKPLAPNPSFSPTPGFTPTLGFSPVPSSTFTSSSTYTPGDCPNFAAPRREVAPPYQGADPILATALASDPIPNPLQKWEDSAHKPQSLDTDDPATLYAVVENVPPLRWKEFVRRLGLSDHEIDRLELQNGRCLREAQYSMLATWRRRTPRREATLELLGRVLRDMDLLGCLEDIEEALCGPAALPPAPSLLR

[12] = trabecular bone, Micro-CT, vs model group

Substance: H-DEQHLETELH [Hydrostatin-SN10]
- binding to TNF-α [1]: does not bind
- binding to TNF-α ([1]; listed as SN10): no binding
- competitive inhibition of the interaction of TNFR1 with TNF-α [2]: competitively inhibits
- binding to TNF-α [3]: not binding
- binding to TNF-α ([3]; listed as SN10): no binding
- binding to TNFR2 ([4]; fluorescently labeled TNFR2): not binding
- binding to TNFR2 ([4]; fluorescently labeled TNFR2, listed as SN10): no binding
- competitive inhibition of the interaction of TNFR1 and TNF-α [5]: competitively inhibit
- arthritis index [6]: reduced
- content of IFN-γ in serum [7]: significantly reduced
- content of IL-6 in serum [7]: significantly reduced
- content of IL-17 in serum [7]: significantly reduced
- content of TNF-α in serum [7]: significantly reduced
- content of anti-inflammatory factor IL10 in serum [7]: Significantly increased
- content of collagen-specific antibody Ig G in serum [7]: significantly reduced
- trabecular bone damage ([8]; Micro-CT of trabecular bone, CIA mice, vs model group): significantly reduced bone damage
- degree of bone destruction, hind limbs ([8]; Micro-CT, CIA mice, peptides 1600 ug/kg, infliximab 4 mg/kg i.p.): significantly reduced the degree of bone destruction
- bone area/tissue volume (BS/TV) [8, 12]: significantly up-regulated
- bone mineral density (BMD) [8, 12]: significantly up-regulated
- bone surface area/bone volume (BS/BV) [8, 12]: significant down
- bone volume/tissue volume (BV/TV) [8, 12]: significantly up-regulated
- number of trabeculae (Th.N) [8, 12]: significantly up-regulated
- trabecular model factor (Tb.pf) [8, 12]: significant down
- trabecular separation (Tb.sp) [8, 12]: significant down
- trabecular thickness (Tb.Th) [8, 12]: significantly up-regulated
- inflammatory cell infiltration ([9]; HE staining of joint): more severe inflammatory cell infiltration
- joint structure ([9]; HE staining of joint): intact joint structure
- synovial hyperplasia ([9]; HE staining of joint): severe synovial hyperplasia
- osteoclasts in joints ([9]; TRAP staining, vs model group): reduced osteoclasts
- tartrate-resistant phosphatase (TRAP) in joints ([9]; TRAP staining, vs model group): reduced
- amount of expression of TNF-α in the joints ([9]; immunohistochemistry, vs model group): reduced
- expression level of Foxp3 in Treg cells ([10]; CIA mice): significantly increased
- expression level of IFN-γ (Th1) ([10]; splenocytes of CIA mice): significantly down-regulated
- expression level of IL-17 (Th17) ([10]; splenocytes of CIA mice): significantly down-regulated
- expression of IL-4 (Th2) ([10]; splenocytes of CIA mice): up-regulated
- pKd [11]: ~5.55
